This assay is described as follows: antiviral protection against BTV-induced cell death – arbovirus, BSR cells, confirmation (AID 1250). The following applies: BSR cells, Bluetongue virus CPE, ATP luminescence, 72 h; at 20 µM (top of the series).

Calls of active or inactive are those of the source.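 The calls were made as follows: active = inhibition of at least 30% at one or more tested concentrations; inactive = inhibition below 30% at every dose.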

Turning to `Nc1nc2ccccc2n1/N=C/c1ccc(-c2ccccc2)o1`, the CPE inhibition is 12.9% (inactive).
The result for `CCOC(=O)c1ccc(NC(=S)N2CCSC2c2c(F)cc(F)cc2F)cc1` (stereo not given) reads 11.8% (inactive); that for `Cc1nn(CC(=O)OCCOc2ccc(Br)cc2)c(C)c1[N+](=O)[O-]`, 2.41% (inactive); that for `COc1ccc(CCN(C)Cc2ccc(F)cc2F)cc1OC`, 3.03% (inactive).
The result for `CCCc1cc2c(OC(=O)CC)c(-c3ccc(C(=O)OCC)o3)c(=O)oc2cc1OC` reads 19.6% (inactive).
As for `COc1ccc(NS(=O)(=O)c2cc(NC(=O)/C=C/c3cccs3)ccc2N2CCOCC2)cc1`, the figure is 18.4% (inactive).
For the compound `CC(C)n1c(NCCc2ccccc2)nc2c1c(=O)n(C)c(=O)n2C`, the CPE inhibition is 7.91% (inactive).
For the compound `COc1ccc(C(=O)Nc2cc(Cl)ccc2C(=O)O)cc1`, the CPE inhibition was 17.7% (inactive).
As for `CCCCN(CCCC)CC(O)COc1ccccc1Br` (stereo not given), the figure is 15.3% (inactive).
`CCOCCCNC(=S)NCCNc1nc2c(C)cccc2cc1C#N`: the CPE inhibition was 7.38% (inactive).
In the case of `CCc1nnc(NS(=O)(=O)c2ccc(NC(=O)COc3ccc4ccccc4c3)cc2)s1`, the CPE inhibition was 25.7% (inactive).
As for `CCCn1c2c(c(O)c(C(=O)Nc3nc4ccccc4s3)c1=O)CCCC2`, the figure is 19.3% (inactive); as for `Cc1ccc(N2CN=c3s/c(=C\c4ccccn4)c(=O)n3C2)cc1`, -1.84% (inactive).
As for `Cc1cccc2c1-c1sc(C(=O)Nc3nccs3)cc1CO2`, the figure is 27% (inactive); as for `COc1cccc(CN=C2Nc3ccccc3CS2)c1`, -0.42% (inactive).
As for `Cc1ccc(NC2c3ncccc3C(=O)N2C2CCCCC2)cc1C` (stereo not given), the figure is 12.7% (inactive); as for `O=C1c2ccccc2N2C(=O)c3ccccc3[C@H]2N1c1ccccc1`, 2.15% (inactive); as for `Cc1nn(-c2ccccc2)c2nc(C(F)(F)F)[nH]c(=O)c12`, 20% (inactive).
In the case of `O=C(Nc1nc2ccccc2s1)c1ccc(OCC2CCCO2)cc1` (stereo not given), the CPE inhibition was 5.66% (inactive).
In the case of `CCn1nc(C)c(NC(=O)Nc2cccc(Cl)c2Cl)c1C`, the CPE inhibition is 2.62% (inactive).
For the compound `CC(=O)Nc1ccc(NC(=O)COc2ccccc2C(=O)Nc2cccc(Cl)c2Cl)cc1`, the CPE inhibition was 15% (inactive).
For the compound `N#CCSc1nc(N)c(C#N)c(C2CCCCC2)c1C#N`, the CPE inhibition is 6.59% (inactive).
With `O=C1CC(c2cccc([N+](=O)[O-])c2)c2ccc3ccccc3c2N1` (stereo not given), the CPE inhibition is 8.81% (inactive).
As for `Cc1nc(CNS(=O)(=O)c2cccnc2)cs1`, the figure is 4.68% (inactive); as for `OC(CNCC1(N2CCCCC2)CCCCC1)COc1ccc(Cl)cc1Cl` (stereo not given), 11.6% (inactive); as for `COc1cccc(C2CC(c3ccc(Cl)cc3Cl)Nc3nc(N)nn32)c1` (stereo not given), 2.82% (inactive).
The result for `O=C(CSCc1ccc(Cl)cc1)Nc1cccc(C(=O)Nc2ccccc2C(=O)O)c1` reads 23.5% (inactive); that for `CCc1cc2c(=O)c(-c3cscn3)coc2c(CN(C)C)c1O`, 5.92% (inactive).
As for `O=C1N=c2ccccc2=C1c1sc(Nc2ccc(O)cc2)nc1O`, the figure is 14.8% (inactive).
`O=C1CC(N2CCC(Cc3ccccc3)CC2)C(=O)N1CCc1ccccc1` (stereo not given): the CPE inhibition is 3.89% (inactive).
As to `Fc1ccccc1COc1ccc2ccccc2c1CNc1nn[nH]n1`, the CPE inhibition is 11.5% (inactive).
As for `O=C(CSc1nccc(=O)[nH]1)N1N=C2/C(=C/c3ccco3)CCCC2C1c1ccco1` (stereo not given), the figure is 21.5% (inactive); as for `O=C/C(=C\Nc1ccc(Cl)cn1)c1nc2cc(Cl)ccc2o1`, 10.2% (inactive); as for `Cc1ccc(-n2nc(C)c(NC(=O)CCl)c2C)cc1`, 13.3% (inactive).
Regarding `O=C(C1CC1)N1CCN=C1SCc1ccc(Cl)cc1`, the CPE inhibition was 0% (inactive).
The result for `O=C(c1coc(=O)c(Br)c1)N1CCCc2ccccc21` reads 4.27% (inactive); that for `CCc1ccc(C(=O)Nc2ccc(S(=O)(=O)Nc3nc(C)cc(C)n3)cc2)o1`, 24.5% (inactive); that for `Cc1c(Cl)cccc1NC(=O)c1cc(-c2ccccc2O)n[nH]1`, 17.9% (inactive).
As for `O=C(c1ccc2ccccc2n1)N1CCN(c2ccccc2Cl)CC1`, the figure is 8.76% (inactive); as for `Cc1cccc(CSc2nn3c(=O)c(C)nnc3s2)c1`, 19.1% (inactive); as for `Clc1cccc(-c2cc3nc4c(c(NCc5ccco5)n3n2)CCCC4)c1`, 10.7% (inactive).
The result for `COCCCNCC1C(Oc2ccc(Cl)cc2)C(=O)N1c1ccccc1C` (stereo not given) reads 14.4% (inactive).
As for `Cc1ccc(NC(=O)COc2ccc(Br)cc2CO)cc1`, the CPE inhibition was 10.5% (inactive).
As for `O=C(O)c1ccc(COc2ccc3ccccc3c2/C=C2/NC(=O)N(Cc3ccc(F)cc3)C2=O)cc1`, the figure is 7.43% (inactive).
As for `COc1cc2c(cc1NC(=O)CC1SC(N3CCCC3)=NC1=O)oc1ccccc12` (stereo not given), the figure is 13.7% (inactive); as for `COC1=C/C(=C/c2c(N)n3nc(-c4ccc(C)cc4)sc3nc2=O)C=CC1=O`, 29.9% (inactive).
As to `CCc1nn2cc(C(=O)c3ccccc3O)cnc2c1-c1ccc(F)cc1`, the CPE inhibition is 14.2% (inactive).
As for `O=C(Nc1nc(-c2ccccc2)ns1)c1cccs1`, the figure is 15.2% (inactive).
As for `CSc1nsc2nc(=O)c(/C=C3\C(C)=Nc4ccccc43)c(N)n12`, the figure is 23% (inactive); as for `Fc1ccccc1N1CCN(c2ncnc3[nH]ncc23)CC1`, 7.21% (inactive); as for `CCCc1c(OCCCCc2nn[nH]n2)ccc(C(C)=O)c1O`, 12.8% (inactive).
As for `Cc1csc(NC(=O)c2ccc(C)c(S(=O)(=O)N3CCCCC3)c2)n1`, the figure is 24.1% (inactive); as for `O=C(NCCN1C(=O)S/C(=C/c2cccnc2)C1=O)C1CC(=O)N(Cc2ccccc2)C1` (stereo not given), 3.69% (inactive).
Regarding `CCSc1nnc(NC(=O)c2ccc(C)cc2)s1`, the CPE inhibition is 5.39% (inactive).
The result for `O=C(Nc1sc2c(c1C(=O)O)CCC2)c1cccs1` reads 14.7% (inactive).
Consider `CSc1ncc(Cl)c(C(=O)C(C#N)c2nc3c(C)cc(C)cc3c(=O)[nH]2)n1` (stereo not given), for which the CPE inhibition is 20.1% (inactive).
Regarding `Cc1cc(C)c(NC(=O)c2oc3ccccc3c2COc2ccccc2)c(C)c1`, the CPE inhibition was 5.41% (inactive).
As for `COc1ccc(-c2csc(NC(=O)Cc3cccc4ccccc34)c2C(=O)O)cc1`, the figure is 24.9% (inactive); as for `O=Cc1cn(-c2ccccc2)nc1-c1cc2cc(O)ccc2oc1=O`, 9.88% (inactive); as for `COc1ccc(C(=O)NN/C(C)=C/C(=O)C(F)(F)C(F)(F)C(F)(F)F)cc1`, -14.6% (inactive).
As for `Cc1cccc(CSc2nnc(NC(=O)CSc3nnc(C)s3)s2)c1`, the figure is 17.3% (inactive); as for `O=C1CN(C(=O)/C=C/c2ccc(Cl)cc2)c2ccccc2N1`, 7.62% (inactive); as for `O=C(O)c1cccc(-n2cccc2/C=C2/NC(=O)N(c3ccc(Cl)cc3)C2=O)c1`, 10.4% (inactive).
With `O=C(NC(=S)NCCC1=CCCCC1)c1ccccc1Br`, the CPE inhibition is 28.5% (inactive).
For the compound `O=C(Nc1ccccc1C(=O)O)c1ccc2ccccc2n1`, the CPE inhibition is 16.2% (inactive).
As for `Cc1cc(F)ccc1S(=O)(=O)Nc1ncnc2scc(-c3ccc(F)cc3)c12`, the figure is 21.7% (inactive); as for `CCOC(=O)c1c(-c2ccc(C)c(C)c2)csc1NC(=O)C1CC=CCC1C(=O)O` (stereo not given), 29.6% (inactive); as for `O=C1NC(=O)/C(=C\c2ccc(Oc3ccc([N+](=O)[O-])cn3)cc2)S1`, 12.8% (inactive).
The result for `Cc1ccc(Nc2nc(N)c([N+](=O)[O-])c(N3CCOCC3)n2)cc1C` reads 11.3% (inactive).
As for `Cc1ccc(C(=O)Nc2ccccc2SCC2CSc3nc4ccccc4c(=O)n32)cc1` (stereo not given), the figure is 14.6% (inactive); as for `COc1cc(/C=C/C(=O)Nc2nnc(C(C)(C)C)s2)cc(OC)c1OC`, 11.5% (inactive); as for `N#Cc1c(C(F)(F)F)cc(-c2ccc(Cl)cc2)[nH]c1=O`, 25.9% (inactive).
For the compound `C/C=C/c1ccc(OCCCCOc2ccccc2C(C)=O)c(OC)c1`, the CPE inhibition is 11.9% (inactive).
Regarding `Cc1ccc2nc(NC(=O)C3CCN(S(=O)(=O)c4cnc[nH]4)CC3)sc2c1`, the CPE inhibition is 14% (inactive).
In the case of `COC(=O)[C@H](Cc1ccccc1)NC(=O)O[C@@H]1C(=O)c2cc(OC)ccc2O[C@H]1c1ccc(OC)c(Br)c1`, the CPE inhibition is 13.7% (inactive).
The result for `Fc1ccc(Br)cc1C1C=C(c2ccc(Br)cc2)Nc2ncnn21` (stereo not given) reads 2.77% (inactive).
Take `O=c1c(Cl)c(N2CCN(c3ccc(F)cc3)CC2)cnn1C12CC3CC(CC(C3)C1)C2`: the CPE inhibition was -3.76% (inactive).
As for `CCOC(=O)c1c(NC(=O)CSc2ccccc2C(=O)O)sc(C)c1C`, the figure is 19.3% (inactive); as for `C/C(C/C(C)=C1/SC(=S)NC1=O)=C1\SC(=S)NC1=O`, 6.76% (inactive); as for `FC(F)(F)c1cccc(Oc2ccc3c(C(F)(F)F)cc(C(F)(F)F)nc3n2)c1`, 3.1% (inactive).
Turning to `COc1ccccc1N1CCN(Cc2ccc(OC)c3ccccc23)CC1`, the CPE inhibition was 11.1% (inactive).
The result for `CS(=O)(=O)C1=NSC2=NC(=O)/C(=C\c3cccn3-c3ccccc3Cl)C(=N)N21` reads 8.16% (inactive); that for `N#CCCN(Cc1cccnc1)C(=S)Nc1ccc(OC(F)F)cc1`, 3.08% (inactive); that for `Cc1noc(C)c1C(=O)OCC(=O)Nc1cc(Cl)ccc1Oc1ccccc1`, 22.6% (inactive).
As for `O=C(NNC(=S)NC1CCCCC1)c1ccc(Cl)s1`, the figure is 28.3% (inactive).

The values are drawn from PubChem BioAssay AID1250 (SRMLSC, 2008).
